This is an account of results in patent publication US5604209A, “Synergistic antiviral compositions” (Mitsubishi Chemical Corporation, priority 1993, dated 1997).

pIC50: −log10 of the molar value.

Series [1] concerns the target T1, HIV-1 reverse transcriptase (Human immunodeficiency virus type 1 group M subtype B, UniProt P04585).
T1 construct: HIV-1 reverse transcriptase (RT)
The series can be described thus: Inhibition of HIV-1 reverse transcriptase (incorporation of tritiated thymidine phosphate into cDNA), alone and combined with AZT-TP. In kind it is biochemical. The note with it: for Combination Index CI50 (50% inhibition of RT) / Combination Index CI70 (70% inhibition of RT) / Combination Index CI90 (90% inhibition of RT): in combination with AZT-TP, AZT-TP/compound ratio 1/20 (MKC-442), 1/250 (R82913), 1/250 (Nevirapine), 1/40 (L-696229), CI<1 synergistic, CI>1 counterbalance. How it is done:
The inhibitory activity was evaluated on the basis of the incorporation Of tritiated thymidine phosphate into acid-precipitating cDNA in the presence of HIV-1 reverse transcriptase (RT).
To a reaction solution (50 mM Tris-HC1, pH 8.4, 0.1% Triton X-100, 100 mM magnesium chloride, 2 mM dithiothreitol, 50 mM potassium chloride, 0.1 mg/ml bovine serum albumin (nuclease-free, Worthington, Freehold, N.J.), 0.5 μCi [methyl-^3 H]TTP and 12 μg/ml poly(rA). p(dT)12-18)was added 10% solution of a test drug in dimethyl sulfoxide and RT (0.05 units) to obtain a reaction mixture of total volume of 50 μl. The mixture was incubated at 37° C. for 30 min and the reaction stopped with 2M EDTA (10 μl). The resultant reaction mixture (50 μl) was spotted on Whatman DE-81 filter paper circle. The circle was washed with 5% disodium hydrogenphosphate (×3), water (×2) and 95% ethanol (×2) and the radiation was counted with scintillation counter.
Thus, an isoborogram was prepared to evaluate the effect of combined use of AZT-TP and various allosteric inhibitors according to the method of Chou et al., Adv. Enzyme Regul., 22, 27-55 (1984) (FIG. 1). The data plotted were obtained by dividing IC50, the concentration of an allosteric inhibitor required to achieve 50% inhibition of reverse transcriptase of HIV, in the presence of AZT-TP with IC50 of an allosteric inhibitor obtained in the absence of a given concentration of AZT-TP. In the FIG. 1, each symbol represents individual allosteric inhibitor as follows.
Combination indexes (CI) for 50%, 70% and 90% inhibition of RT (representedby CI50, CI70 and CI90) were calculated according to the method of Prichard et al., Antimicrob. Agents Chemother., 35, 1060-1065 (1991) on the basis of results obtained in experiments carried out at least twice at indicated concentration ratio. Results are shown in Table 1 below, wherein CI<1 means the synergistic effect; CI1, additive effect; and CI>1, counterbalance effect.

For series [2] the following is noted: background statement; cited from earlier work.

For `Cc1cn([C@H]2C[C@H](N=[N+]=[N-])[C@@H](COP(=O)(O)OP(=O)(O)OP(=O)(O)O)O2)c(=O)[nH]c1=O` [AZT-TP, 3'-azide-3'-deoxythymidine triphosphate], the “concentration of AZT-TP for 50% inhibition of RT as fraction of its IC50 alone” value in series [1] (in the presence of MKC-442 at 1/2 concentration of its IC50) is “about 1/10”.
With `CC(C)=CCN1Cc2cc(Cl)cc3[nH]c(=S)n(c23)C[C@@H]1C` [R82913, (+)-(S)-9-Chloro-4,5,6,7-tetrahydro-5-methyl-6-(3-methyl-2-butenyl)imidazo[4,5,1-jk][1,4]benzodiazepine-2(1H)-thione], in series [1], the “Combination Index CI50 (50% inhibition of RT)” value turned out to be 1.15, the “Combination Index CI70 (70% inhibition of RT)” value came to 1.33 and the “Combination Index CI90 (90% inhibition of RT)” value is on record as 1.70.
As to `CCc1cc(CCc2nc3ccccc3o2)c(=O)[nH]c1C` [L-696229, 3-[2-(Benzoxazole-2-yl)ethyl]-5-ethyl-6-methylpyridine-2(1H)-one], in series [1], the “Combination Index CI50 (50% inhibition of RT)” value was 0.97, the “Combination Index CI70 (70% inhibition of RT)” value amounted to 0.99 and the “Combination Index CI90 (90% inhibition of RT)” value is given as 1.06.
For the compound `CCOCn1c(Cc2ccccc2)c(C(C)C)c(=O)[nH]c1=O` [MKC-442, 6-Benzyl-1-ethoxymethyl-5-isopropyluracil], in series [1], the “Combination Index CI50 (50% inhibition of RT)” value is 0.82, the “Combination Index CI70 (70% inhibition of RT)” value was 0.63 and the “Combination Index CI90 (90% inhibition of RT)” value is 0.43. The pIC50 in series [1] (used alone, poly(rA).p(dT)12-18 template, 37° C., 30 min, read-out: IC50 (concentration required to obtain 50% inhibition of RT when used alone)) is 7.47.
Consider `Cc1cn([C@H]2C[C@H](N=[N+]=[N-])[C@@H](CO)O2)c(=O)[nH]c1=O` [AZT, 3'-azide-3'-deoxythymidine], for which, in series [2], the reported side effects entry is recorded as “severe anemia or leukopenia due to suppression of bone marrow”.
`Cc1ccnc2c1NC(=O)c1cccnc1N2C1CC1` [Nevirapine, 5,11-Dihydro-11-cyclopropyl-4-methyldipyrido[2,3,-b:2',3'-e][1,4]diazepine-6-one]: in series [1], the “Combination Index CI50 (50% inhibition of RT)” value amounted to 1.04, the “Combination Index CI70 (70% inhibition of RT)” value was 0.91 and the “Combination Index CI90 (90% inhibition of RT)” value is recorded as 0.69.
